Reference: article PMC8466825, “Mass Spectrometric Quantification of the Antimicrobial Peptide Pep19-2.5 with Stable Isotope Labeling and Acidic Hydrolysis” (Pharmaceutics, 2021)

Assay: Stability of aromatic amino acids during acidic hydrolysis (HPLC)
Format: physicochemical
Conditions: hydrochloric acid, 24 h at 120 °C, 1 mg/mL before hydrolysis, HPLC with UV 214 nm
Method: For acidic hydrolysis 10 µL ^13C6(ring) phenylalanine (1 mg/mL stock) were added as internal standard to 200 µL water containing ^13C9,^15N1 phenylalanine (for calibration curve) or human serum (from voluntary donors) containing Pep19-2.5 with four ^13C9,^15N1 phenylalanine residues. After addition of 270 µL hydrochloric acid (10 M), the samples were hydrolyzed at 120 °C for 24 h. Subsequently, the solvent was evaporated in a vacuum evaporator (HETOVAC) at 40 °C for 4 h and the pellet was resuspended in water to achieve the applied concentration.
HPLC analysis was performed using an Agilent 1100 system with an UV-detection at 214 nm. As stationary phase a Chromolith® Performance RP-18e 100–3 mm column (Merck KGaA, Darmstadt, Germany) was used. A 5 min linear gradient from 100% water (+0.05% trifluoroacetic acid (TFA)) to 100% acetonitrile (+0.05% TFA) was applied.
For an accurate determination it is necessary to select an amino acid which is stable under the extreme conditions in the hydrolysis step (24 h, 120 °C). Moreover, the development of the method is facilitated if the amino acid is UV-active and more importantly in case of hydrophobic amino acids that are separated from the bulk of amino acids by RP-HPLC. Due to this, the three aromatic amino acids phenylalanine, tryptophan and tyrosine were hydrolyzed, and their stability analyzed by HPLC, as shown in Figure 4.

stability during the acidic hydrolysis process	SMILES
forms several degradation products	N[C@@H](Cc1c[nH]c2ccccc12)C(=O)O [Tryptophan, tryptophan]
sufficiently stable	N[C@@H](Cc1ccccc1)C(=O)O [phenylalanine]
degraded to poorly soluble products	N[C@@H](Cc1ccc(O)cc1)C(=O)O [tyrosine]
